From ChEMBL document CHEMBL3826897, “A facile and rapid access to resveratrol derivatives and their radioprotective activity” (Bioorg Med Chem Lett, 2016) come the findings set out here.

Bounds are passed on as bounds.

Data set [1] is described as follows: Stability of the compound. In kind it is physicochemical.
Data set [2] can be described thus: Radioprotective activity in rat thymocytes assessed as radio-modification factor pretreated at 1 uM followed by 2 Gy X-ray irradiation measured after 4 hrs by flow cytometric analysis relative to control. In kind it is ADME, cell-based. As to conditions: thymocyte.
In data set [3] the test system is Thymocyte. The experiment in a line: Toxicity in rat thymocytes assessed as increase in cell death at 100 uM measured after 4 hrs by flow cytometric analysis relative to control. In kind it is cell-based.
Data set [4] relates to Thymocyte. Nature of the data set: Toxicity in rat thymocytes assessed as increase in cell death at 10 uM measured after 4 hrs by flow cytometric analysis relative to control. The class given is cell-based.
Data set [5] can be described thus: Radioprotective activity in rat thymocytes assessed as radio-modification factor pretreated at 100 uM followed by 2 Gy X-ray irradiation measured after 4 hrs by flow cytometric analysis relative to control. In kind it is ADME, cell-based. As to conditions: thymocyte.
In data set [6] the test system is Thymocyte. Nature of the data set: Toxicity in rat thymocytes assessed as increase in cell death at 1 uM measured after 4 hrs by flow cytometric analysis relative to control. The class given is cell-based.
A short description of data set [7]: Radioprotective activity in rat thymocytes assessed as radio-modification factor pretreated at 10 uM followed by 2 Gy X-ray irradiation measured after 4 hrs by flow cytometric analysis relative to control. In kind it is ADME, cell-based. As to conditions: thymocyte.
Data set [8] relates to Thymocyte. The experiment in a line: Toxicity in rat thymocytes assessed as increase in cell death at 1000 uM measured after 4 hrs by flow cytometric analysis relative to control. The class given is cell-based.
Data set [9] can be described thus: Radioprotective activity in rat thymocytes assessed as radio-modification factor pretreated at 1000 uM followed by 2 Gy X-ray irradiation measured after 4 hrs by flow cytometric analysis relative to control. Particulars: thymocyte. The class given is ADME, cell-based.

On to `COc1cc(/C=C/c2ccc(Cl)cc2)cc(OC)c1`, for which, in [1], the Stability entry is recorded as “Unstable”.
Consider `COc1cc(/C=C/c2ccccc2)cc(OC)c1` [3,5-O-DIMETHYLPINOSYLVIN], for which the Stability result in [1] is given as “Unstable”.
For the compound `COc1cccc(/C=C/c2cc(OC)cc(OC)c2)c1`, the Ratio in data set [2] is 1.4; with Thymocyte [3] it was less than 5; in the data set with Thymocyte [4], less than 5; in data set [5] it was 1.1; with Thymocyte [6] it was less than 5; in data set [7] it was 1.2. Besides, the Ratio in the data set on Thymocyte [8] is on record as less than 5; in data set [9] it was 0.2.
Consider `Nc1ccc(/C=C/c2cc(O)cc(O)c2)cc1`, for which the Stability result in data set [1] was “Unstable”.
For `Oc1cc(O)cc(/C=C/c2ccc(Cl)cc2)c1`, the Ratio in data set [2] is on record as 0.56; in the data set with Thymocyte [3], greater than 10; in the data set with Thymocyte [4], 5; with Thymocyte [6] it was 5; in data set [7] it was 0.47; in the data set on Thymocyte [8], greater than 10.
`COc1ccc(/C=C/c2ccc(OC)cc2)cc1`: the Ratio is listed as 1.1 in [2]; less than 5 in the data set on Thymocyte [3]; less than 5 in the data set with Thymocyte [4]; 1.3 in [5]; less than 5 in the data set on Thymocyte [6]; 1 in data set [7]. Besides, the Ratio is recorded as less than 5 in the data set on Thymocyte [8] and 1.5 in data set [9].
`Oc1ccc(/C=C/c2cc(O)ccc2O)cc1`: the Ratio in data set [2] is given as 1.7; in the data set on Thymocyte [3], greater than 10; in the data set on Thymocyte [4], greater than 10; with Thymocyte [6], less than 5; with Thymocyte [8], greater than 10.
Take `COc1cc(/C=C/c2ccc(C)cc2)cc(OC)c1`: in data set [1], the Stability result is “Unstable”.
Turning to `CC(=O)Oc1ccc(/C=C/c2cc(O)cc(O)c2)cc1`, the Ratio in data set [2] was 1.14; in the data set with Thymocyte [3] it was less than 5; in the data set on Thymocyte [4] it was less than 5; in [5], 0.91; in the data set with Thymocyte [6], less than 5; in data set [7], 1.01. In addition, the Ratio with Thymocyte [8] is greater than 10.
As to `Oc1ccc(/C=C/c2cc(O)cc(O)c2)cc1` [RESVERATROL], the Ratio in [2] is 0.93; with Thymocyte [3] it was less than 5; in the data set with Thymocyte [4] it was less than 5; in data set [5] it was 0.59; in the data set with Thymocyte [6] it was less than 5; in [7], 1.06. Moreover, the Ratio in the data set on Thymocyte [8] is recorded as less than 5; in data set [9] it was -0.34.
`COc1ccc(/C=C/c2ccc(OC)c(OC)c2)cc1OC`: the Ratio is recorded as 0.4 in [2]; 5 in the data set on Thymocyte [3]; less than 5 in the data set with Thymocyte [4]; 0.4 in data set [5]; less than 5 in the data set with Thymocyte [6]; 1 in [7]. Moreover, the values for the Ratio (in the data set with Thymocyte [8]; in data set [9]) were 5 and 0.3, respectively.
As for `COc1ccc(/C=C/c2ccccc2OC)cc1`, the Ratio in data set [2] is 1.3; with Thymocyte [3] it was less than 5; in the data set on Thymocyte [4], less than 5; in data set [5], -0.2; in the data set with Thymocyte [6], less than 5; in data set [7], 1.3. The Ratio in the data set with Thymocyte [8] came out at 5; in data set [9], 0.2.
Consider `Oc1cccc(/C=C/c2cc(O)cc(O)c2)c1`, for which the Ratio in data set [2] is 0.9; in the data set with Thymocyte [3], less than 5; with Thymocyte [4] it was less than 5; in data set [5] it was 0.3; in the data set on Thymocyte [6] it was less than 5; in data set [7], 0.9. Further, in the data set with Thymocyte [8], the Ratio is greater than 10.
`COc1cc(/C=C/c2ccc(F)cc2)cc(OC)c1`: the Ratio is 1.34 in [2]; greater than 10 in the data set with Thymocyte [3]; less than 5 in the data set with Thymocyte [4]; less than 5 in the data set with Thymocyte [6]; 1.26 in data set [7]; greater than 10 in the data set with Thymocyte [8].
With `COc1cc(/C=C/c2ccc(NC(C)=O)cc2)cc(OC)c1`, the Ratio in data set [2] is 1.25; with Thymocyte [3], less than 5; in the data set with Thymocyte [4], less than 5; in [5] it was 0.99; with Thymocyte [6] it was less than 5; in data set [7], 1.21. In addition, the values for the Ratio (in the data set on Thymocyte [8]; in [9]) were less than 5 and 1.05, respectively.
In the case of `Oc1cc(O)cc(/C=C/c2ccccc2)c1` [PINOSYLVIN], the Stability entry in [1] is on record as “Unstable”.
Consider `Oc1cc(O)cc(/C=C/c2ccccc2O)c1`, for which the Ratio in data set [2] is 1.2; in the data set with Thymocyte [3], less than 5; with Thymocyte [4] it was less than 5; in data set [5] it was 0.4; with Thymocyte [6] it was less than 5; in data set [7], 1.3. Further, in the data set on Thymocyte [8], the Ratio was greater than 10.
Take `Oc1ccc(/C=C/c2ccc(O)cc2)cc1` [TRANS-4,4'-DIHYDROXYSTILBENE]: the Ratio was 0.6 in data set [2]; less than 5 in the data set with Thymocyte [3]; less than 5 in the data set with Thymocyte [4]; 1.2 in [5]; less than 5 in the data set on Thymocyte [6]; 1.1 in [7]. Further, the results for the Ratio (in the data set with Thymocyte [8]; in data set [9]) were less than 5 and 1.1, respectively.
Consider `COc1ccc(/C=C/c2cccc(OC)c2)cc1`, for which the Ratio in [2] is listed as 1; with Thymocyte [3], less than 5; with Thymocyte [4] it was less than 5; in data set [5] it was 1.1; with Thymocyte [6], less than 5; in data set [7], 1.1. The Ratio is given as less than 5 with Thymocyte [8] and 1.5 in data set [9].
Take `COc1ccc(/C=C/c2cc(OC)cc(OC)c2)cc1` [TRISMETHOXYRESVERATROL]: the Ratio is listed as 0.82 in [2]; less than 5 with Thymocyte [3]; less than 5 with Thymocyte [4]; 0.31 in [5]; less than 5 in the data set on Thymocyte [6]; 0.85 in data set [7]. Besides, the figures for the Ratio (in the data set with Thymocyte [8]; in data set [9]) were 5 and -0.15, respectively.
On to `COc1ccc(/C=C/c2ccc(OC)c(OC)c2)cc1`, for which the Ratio in [2] was 0.8; in the data set with Thymocyte [3] it was less than 5; with Thymocyte [4] it was less than 5; in data set [5], 0.7; in the data set with Thymocyte [6], less than 5; in data set [7], 1. Further, the Ratio worked out at 5 in the data set with Thymocyte [8] and 0.5 in [9].
As to `Oc1ccc(/C=C/c2ccc(O)c(O)c2)cc1`, the Ratio in [2] is on record as 2.2; in the data set on Thymocyte [3] it was less than 5; in the data set on Thymocyte [4], less than 5; in data set [5], -0.3; in the data set with Thymocyte [6], less than 5; in data set [7] it was 1.3. For the same compound, the Ratio in the data set with Thymocyte [8] is on record as greater than 10.
Regarding `Oc1ccc(/C=C/c2cccc(O)c2)cc1` [(E)-3,4'-STILBENDIOL], the Ratio in data set [2] is reported as 1.4; with Thymocyte [3], less than 5; in the data set with Thymocyte [4], less than 5; in [5], 1.6; in the data set with Thymocyte [6], less than 5; in data set [7] it was 1.2. Further, the Ratio in the data set with Thymocyte [8] is given as less than 5; in data set [9], 0.6.
For the compound `COc1cc(/C=C/c2ccccc2OC)cc(OC)c1`, the Ratio was 0.8 in data set [2]; less than 5 with Thymocyte [3]; less than 5 in the data set on Thymocyte [4]; 0.3 in [5]; less than 5 in the data set on Thymocyte [6]; 0.6 in data set [7]. Moreover, the Ratio came out at 5 in the data set on Thymocyte [8] and 0.1 in data set [9].
Take `CC(=O)Nc1ccc(/C=C/c2cc(O)cc(O)c2)cc1`: in data set [1], the Stability result is “Unstable”.
As to `Cc1ccc(/C=C/c2cc(O)cc(O)c2)cc1`, the Ratio in [2] was 0.94; with Thymocyte [3], greater than 10; with Thymocyte [4], less than 5; in data set [5], 0.11; in the data set on Thymocyte [6], less than 5; in data set [7] it was 1.06. In addition, the Ratio in the data set with Thymocyte [8] is reported as less than 5.
On to `Oc1ccc(/C=C/c2ccc(O)c(O)c2)cc1O`, for which the Stability entry in data set [1] is “Unstable”.
For `COc1cc(/C=C/c2ccc(OC(C)=O)cc2)cc(OC)c1`, the Ratio is given as 0.99 in data set [2]; 5 in the data set with Thymocyte [3]; 5 in the data set with Thymocyte [4]; 0.52 in data set [5]; less than 5 with Thymocyte [6]; 0.86 in data set [7]. Besides, the results for the Ratio (with Thymocyte [8]; in [9]) were 5 and 0.07, respectively.
As to `Oc1ccc(/C=C/c2ccccc2O)cc1`, the Ratio in data set [2] is reported as 0.4; in the data set with Thymocyte [3], 5; in the data set on Thymocyte [4], less than 5; in data set [5], 0.5; with Thymocyte [6], 5; in [7], 0.7. For the same compound, in the data set on Thymocyte [8], the Ratio is recorded as greater than 10.
In the case of `COc1ccc(/C=C/c2cc(OC)ccc2OC)cc1`, the Ratio is listed as 0.7 in data set [2]; less than 5 in the data set on Thymocyte [3]; less than 5 in the data set with Thymocyte [4]; 0.9 in data set [5]; less than 5 in the data set on Thymocyte [6]; 1.2 in data set [7]. In addition, the Ratio in the data set on Thymocyte [8] is less than 5; in data set [9], 0.7.
Turning to `Oc1cc(O)cc(/C=C/c2ccc(F)cc2)c1`, the Ratio in [2] was 0.89; in the data set on Thymocyte [3], less than 5; with Thymocyte [4], less than 5; in data set [5], -0.22; with Thymocyte [6] it was less than 5; in [7], 0.81. Further, in the data set on Thymocyte [8], the Ratio is greater than 10.
